# Values of other authors as cited in US20070135444A1, “Treatment of neuroblastoma” (priority 2002, published 2007).
# Conditions: pediatric phase I trial; no maximal dose tolerated reached up to this dose
smiles,measurement,value
CS(=O)(=O)O.Cc1ccc(NC(=O)c2ccc(CN3CCN(C)CC3)cc2)cc1Nc1nccc(-c2cccnc2)n1 [SALT I],maximal dose tolerated,> 570 mg/m^2/day
